Results: US20110195924A1, “Methods of Inhibiting the Interaction Between S100P and the Receptor for Advanced Glycation End-Products” (priority 2008, published 2011)
“Also recorded” adds a separate entry of the source.

Legend:
S100P binding with RAGE = target: T1, S100P binding with RAGE (Homo sapiens, UniProt P25815); experiment: ELISA of S100P binding to RAGE (sRAGE coated plate); conditions: analogs at 10-fold lower concentration than cromolyn
T1 construct: full-length human S100P cDNA (NM_005980) was cloned into the pTrcHis2 vector; His; made in house; host or cells: bacteria (S100P)
T1 sequence (P25815 1-95): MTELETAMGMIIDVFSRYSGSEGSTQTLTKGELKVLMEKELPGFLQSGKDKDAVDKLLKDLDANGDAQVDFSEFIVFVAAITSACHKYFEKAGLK
Protocol: After removing un-bound S100P by washing with detergent, the bound S100P and RAGE complex was quantified by adding HRP labeled antibody against S100P. *, P=0.04 C5 1 μM versus cromolyn 5 μM. Two-tailed two-sample (unpaired) Student's t-tests were used to determine P values.
The plate was washed and the amount of bound S100P was quantitated using anti-S100P antibody.
The binding of S100P to RAGE was determined using an ELISA assay. sRAGE was attached to the dish and recombinant S100P (50 ng) was added with or without the indicated concentrations of cromolyn analogs. The plate was washed and the amount of bound S100P was quantitated using anti-S100P antibody.

NFkB activity = experiment: S100P induced NFkB activity in cancer cells (analogs); type: cell-based
Protocol: (§1) Various cromolyn-based analogs were developed. The effects of the analogs on binding of S100P with RAGE were evaluated for the analogs using a sandwich ELISA. The effectiveness of the analogs to block cancer cell proliferatin and increase apoptosis in vitro were analyzed with and without cisplatin, 5-flurouracil and gemcitabine by MTS and FACS analysis. We also examined the ability of the analogs to inhibit S100P activation of NFkB signaling in cancer cells in vitro and in vivo. Finally, the effects of the novel analogs on tumor growth in vivo was evaluated.

pancreatic cancer cells = experiment: Apoptosis of pancreatic cancer cells with cromolyn analogs and cytotoxic drugs; type: cell-based
Protocol: as §1, with “evaluated. One analog, C5OH is shown below:” for “evaluated.”
In this in vitro study, pancreatic cancer cells were treated with gemcitabine alone or in the presence of cromolyn analogs. The cromolyn analogs themselves have very little effect on the rates of cellular apoptosis, supporting their absence of general toxicity. However, all cromolyn analogs increased the killing of pancreatic cancer cells by gemcitabine.

MPanc96 tumors = experiment: MPanc96 pancreatic tumor growth and survival in mice (analogs); type: in vivo
Protocol: as §1, with “evaluated. One analog, C5OH is shown below:” for “evaluated.”
Animals were implanted with MPanc96 cells, a gemcitabine resistant model of pancreatic cancer, and then treated with gemcitabine, C5OH, or the combination. […] Noteworthy, the addition of the hydroxyl group to the carbon chain in C5 allows easy modifications of this molecule. The hydroxyl can be substituted with fluoride that can be labeled for in vivo PET imaging. This hydroxyl can also be used to develop a pro-drug form of C5 by attaching other components with an ester bond.

Panc-1 cells [1] = experiment: Panc-1 cell proliferation (MTS); type: cell-based; conditions: Panc-1
Protocol: Panc-1 pancreatic adenocarcinoma cells (1.0×10^3 cells/well) were cultured in the presence or absence of S100P (100 nM) and with or without cromolyn (100 μM), and cell proliferation was analyzed at 24, 48, and 72 hours. Means and 95% confidence intervals of three independent experiments performed in triplicate are shown. *, P=0.001, S100P alone versus S100P+cromolyn.
Panc-1 cells were plated at 1.0×10^3 cells/well and treated with platelet-derived growth factor (10 ng/mL) with or without cromolyn (100 μM), and cell proliferation was analyzed after 48 hours. Means and 95% confidence intervals of three independent experiments performed in triplicate are shown. *, P=0.004 PDGF and P=0.022 cromolyn+PDGF versus control.
Growth of Panc-1 and BxPC3 pancreatic adenocarcinoma cells was analyzed using MTS reagent (Promega, Madison, Wis.) according to the manufacturer's directions. Purified S100P (100 nM final concentration) with or without cromolyn (100 μM final concentration) was added to Panc-1 cells. Only cromolyn (0-100 μM) was added to BxPC-3 cells, which express endogenous S100P. For both cell models, 1.0×10^3 cells/well were plated in 96-well culture dishes. Cells were treated with S100P, PDGF, or cromolyn, or a combination, followed immediately by treatment with either S100P or PDGF. MTS (20 μL per well) was added to cells at various times, and the mixture was incubated for 1 hour at 37° C. Samples were then read at 490 nm (as O.D. units) on a uQuant-Microplate Spectrophotometer (Bio-Tek Services Inc., Richmond, Va.). The assay was performed three times in triplicate.

Panc-1 cells [2] = experiment: Panc-1 matrigel invasion assay; type: cell-based; conditions: Panc-1; S100P 100 nM alone, 24 hours
Protocol: FIGS. 2A-2D show the effect of cromolyn on pancreatic cancer cell invasion. Panc-1 and BxPC-3 cells were plated in Bio-coat matrigel and control chambers and cultured in serum-free culture media. After 24 hours non-invaded cells in the upper chamber were removed, and cells that invaded onto the lower surface of the membrane were counted from five adjacent fields. […] Data are expressed as the percent invasion through the matrigel matrix and membrane relative to migration through the control membrane. Means and 95% confidence intervals from three independent experiments performed in triplicate are shown. Two-tailed two-sample (unpaired) Student's t-tests were used to determine P values.
Panc-1 and BxPC-3 cells were seeded in BIOCOAT matrigel invasion chambers and in control chambers without matrigel (Becton-Dickinson, Bedford, Mass.) according to the manufacturer's protocol. Panc-1 cells were seeded with S100P (100 nM) with or without cromolyn (100 μM), and BxPC-3 cells were seeded with or without cromolyn (1-100 μM). Briefly, 2.0×10^5 cells in 300 μL top solution (serum-free media) were added to each chamber and allowed to invade matrigel for 24 hours at 37° C. in a 5% CO2 atmosphere. The non-invading cells on the upper surface of membrane were removed from the chambers with a cotton swab, and the invading cells on the lower surface of the membrane were fixed and stained using a Diff-Quick stain kit (Becton Dickinson, Bedford, Mass.). After two washes with water, the chambers were allowed to air dry. The numbers of invading cells in five adjacent microscope fields per membrane were counted at 20× magnification to obtain the average number of cells per field. Data are expressed as the percent invasion through the matrigel matrix and membrane relative to the migration through the control membrane. The assays were performed three times.

NFκB promoter activity = experiment: NFκB luciferase reporter assay in Panc-1 cells; type: cell-based; conditions: 5 hours
Protocol: FIGS. 3A, 3B, and 3C show the effect of cromolyn on S100P stimulated NFκB promoter activity in pancreatic cancer cells in vitro and in vivo. Panc-1 and BxPC-3 pancreatic cancer cell lines stably expressing an NFκB luciferase reporter were examined for the effects of S100P and cromolyn. […] Means and 95% confidence intervals are shown for three independent experiments performed in triplicate. *, P=0.022, †, P<0.001, and P<0.001 versus control; #, P=0.005 versus 100 nM S100P alone. […] Means and 95% confidence intervals are shown for three independent experiments performed in triplicate. *, P=0.003, †, P<0.001 versus control. […] After 1 week, tumor growth was assessed and NFκB activity was analyzed using an IVIS system (Xenogen Corp., Alameda, Calif.) after injecting mice with D-luciferin (150 mg per kg body weight) (0 time point). The mice were treated with cromolyn (5 mg per kg body weight by intraperitoneal injection), and NFκB luciferase activity was analyzed again at 24 and 48 hours. *, P=0.005 versus control. Means and 95% confidence intervals are shown for two independent experiments (n=4 mice per group). Two-tailed two-sample (unpaired for in vitro and paired for in vivo studies) Student's t-tests were used to determine P values.
To study pancreatic cancer cell NFκB activity, a lentivirus NFκB luciferase reporter gene construct was developed. The NFκB luciferase reporter gene was excised and isolated from the pNF-κB-Luc Vector (Clonetec, Mountain View, Calif.) and cloned into the lentiviral vector FG9 (Gift from Dr. Xiao-Feng Qin, Dept. of Immunology, M.D. Anderson Cancer Center replacing the CMV/LTR and UBiC promoters, to form Lenti-NFκB-Luc. Lentiviral NFκB vector were co-transfected with packaging constructs pRSVREV, pMDLg/pRRE, and the VSV-G expression plasmid pHCMVG, and lentivirus was produced in 293T cells by the calcium transfection method, as previously described in Qin, et al., Inhibiting HIV-1 infection in human T cells by lentiviral-mediated delivery of small interfering RNA against CCR5; Proc. Natl. Acad. Sci. U.S.A. 2003 Jan. 7; 100(1):183-8. […] Functional validation of NFκB reporter activity was conducted in vitro using TNF-α (20 ng/mL, Sigma, St. Louis, Mo.) as a positive control.
BxPC-3 and Panc-1 cells stably expressing a Lenti-NFkB-luc reporter construct were treated with S100P, cromolyn, or the combination for 5 hours. D-luciferin (150 μg/mL) was added to the cells, and luciferase activity was measured using an IVIS bioluminescence system (Xenogen Co. Alameda, Calif.). Each experiment was conducted three times in triplicate.

[3] = MPanc96, gemcitabine resistant model, to a greater extent than gemcitabine

O=C([O-])c1cc(=O)c2c(OCCC(O)CCOc3cccc4oc(C(=O)[O-])cc(=O)c34)cccc2o1.[Na+].[Na+] [C5OH]
potency in blocking S100P binding to RAGE relative to cromolyn or C5 (S100P binding with RAGE): nearly equally potent and more efficient than cromolyn; also recorded: at least as effective as the C5-analog
inhibition of S100P induced NFkB activity relative to cromolyn (NFkB activity): more potently and effectively than did cromolyn
cancer cell apoptosis in response to various cytoxic treatments, relative to cromolyn (pancreatic cancer cells): at lesser concentrations and to a greater extent than did cromolyn
killing of pancreatic cancer cells by gemcitabine (pancreatic cancer cells; with gemcitabine, C5 and C5OH at 10-fold lower concentration than cromolyn): worked equally well
survival of mice with pancreatic tumors (MPanc96 tumors; [3]): prolongs survival
tumor growth (MPanc96 tumors; [3]): reduces tumor growth
effects relative to gemcitabine (MPanc96 tumors; MPanc96 model): superior to those of gemcitabine
inhibition of tumor growth and survival in vivo, relative to cromolyn (MPanc96 tumors; mouse, in vivo): superior to cromolyn

PDGF
cell proliferation, difference versus control (Panc-1 cells [1]; PDGF 10 ng/mL, 48 hours): 0.2 MTS units
cell proliferation, mean (Panc-1 cells [1]; PDGF 10 ng/mL, 48 hours, control mean 0.5): 0.7 MTS units

B1: S100P: purified His-tagged full-length human S100P protein, 95-amino acid member of the S100 family (protein, UniProt P25815 1-95, looked up)
Protein S100-P: T1 sequence (P25815 1-95)
modifications: His tag
notes: purified His-tagged full-length human S100P protein, 95-amino acid member of the S100 family
cell proliferation, mean (Panc-1 cells [1]; S100P 100 nM alone): 0.93 MTS units
cells invaded, mean (Panc-1 cells [2]): 58.0%
NFκB promoter activity, difference versus 0 nM (NFκB promoter activity; S100P 1 nM): 3544 photons/sec
NFκB promoter activity, mean (NFκB promoter activity; S100P 1 nM, 0 nM mean 3358): 6902 photons/sec
NFκB promoter activity, difference versus 0 nM (NFκB promoter activity; S100P 10 nM): 5400 photons/sec
NFκB promoter activity, mean (NFκB promoter activity; S100P 10 nM): 8758 photons/sec
NFκB promoter activity, difference versus 0 nM (NFκB promoter activity; S100P 100 nM): 11100 photons/sec
NFκB promoter activity, mean (NFκB promoter activity; S100P 100 nM): 14460 photons/sec
